# Measured values reported in ChEMBL document CHEMBL3885861, “Open TG-GATES”.
# Species: Rattus norvegicus
# Test: Open TG-GATES - Regimen: Daily Repeat
# Format: toxicity, organism-based, Sprague-Dawley
# Parameters: regimen Daily Repeat, gender Male, age 6 weeks
# Details: in vivo, po, 80 mg/kg, route gavage, dose level Middle; for APTT / Bas / Eos / Fbg / Hb / Ht / Lym / MCH / MCHC / MCV / Mono / Neu / PT / Plat / RBC / Ret / WBC: tissue Blood; for KIDNEY_L / KIDNEY_R / KIDNEY_TOTAL: tissue Kidney; for LIVER: tissue Liver; for A/G / ALP / ALT / AST / BUN / CRE / Ca / Cl / DBIL / GLC / IP / K / LDH / Na / PL / RALB / TBIL / TC / TG / TP / gamma-GTP: tissue Plasma
structure (smiles),measurement,setting,value
CCSCC[C@H](N)C(=O)O [ETHIONINE],TERMINAL_BW,"72 h, time 3 day",221.5 g
same,APTT,"72 h, time 3 day",24.9 s
same,Bas,"72 h, time 3 day",0%
same,Eos,"72 h, time 3 day",1%
same,Fbg,"72 h, time 3 day",201 mg/dL
same,Hb,"72 h, time 3 day",14 g/dL
same,Ht,"72 h, time 3 day",41.5%
same,Lym,"72 h, time 3 day",85.4%
same,MCH,"72 h, time 3 day",20.9 pg
same,MCHC,"72 h, time 3 day",33.7%
same,MCV,"72 h, time 3 day",62.1 fL
same,Mono,"72 h, time 3 day",2.8%
same,Neu,"72 h, time 3 day",9.6%
same,PT,"72 h, time 3 day",15.3 s
same,Plat,"72 h, time 3 day",123 x10_4/uL
same,RBC,"72 h, time 3 day",669.2 x10_4/ul
same,Ret,"72 h, time 3 day",4.8%
same,WBC,"72 h, time 3 day",93.2 x10_2/uL
same,KIDNEY_L,"72 h, time 3 day",1 g
same,KIDNEY_R,"72 h, time 3 day",1 g
same,KIDNEY_TOTAL,"72 h, time 3 day",2 g
same,LIVER,"72 h, time 3 day",9.7 g
same,A/G,"72 h, time 3 day",1.8
same,ALP,"72 h, time 3 day",983 IU/L
same,ALT,"72 h, time 3 day",37.8 IU/L
same,AST,"72 h, time 3 day",65.6 IU/L
same,BUN,"72 h, time 3 day",17.2 mg/dL
same,CRE,"72 h, time 3 day",0.4 mg/dL
same,Ca,"72 h, time 3 day",10.5 mg/dL
same,Cl,"72 h, time 3 day",102 meq/L
same,DBIL,"72 h, time 3 day",0.088 mg/dL
same,GLC,"72 h, time 3 day",197.8 mg/dL
same,IP,"72 h, time 3 day",8.2 mg/dL
same,K,"72 h, time 3 day",3.8 meq/L
same,LDH,"72 h, time 3 day",211 IU/L
same,Na,"72 h, time 3 day",141.6 meq/L
same,PL,"72 h, time 3 day",118.2 mg/dL
same,RALB,"72 h, time 3 day",3.6 g/dL
same,TBIL,"72 h, time 3 day",0.2 mg/dL
same,TC,"72 h, time 3 day",47.2 mg/dL
same,TG,"72 h, time 3 day",94.8 mg/dL
same,TP,"72 h, time 3 day",5.7 g/dL
same,gamma-GTP,"72 h, time 3 day",1.2 IU/L
same,TERMINAL_BW,"[…], time 7 day",252.3 g
same,TERMINAL_BW,"[…], time 14 day",307.2 g
same,TERMINAL_BW,"[…], time 28 day",355.5 g
same,APTT,"[…], time 7 day",25.7 s
same,Bas,"[…], time 7 day",0%
same,Eos,"[…], time 7 day",0.8%
same,Fbg,"[…], time 7 day",216.4 mg/dL
same,Hb,"[…], time 7 day",14.2 g/dL
same,Ht,"[…], time 7 day",41.8%
same,Lym,"[…], time 7 day",81.8%
same,MCH,"[…], time 7 day",20.8 pg
same,MCHC,"[…], time 7 day",33.9%
same,MCV,"[…], time 7 day",61.4 fL
same,Mono,"[…], time 7 day",2%
same,Neu,"[…], time 7 day",14.4%
same,PT,"[…], time 7 day",15 s
same,Plat,"[…], time 7 day",120.9 x10_4/uL
same,RBC,"[…], time 7 day",681.2 x10_4/ul
same,Ret,"[…], time 7 day",3.1%
same,WBC,"[…], time 7 day",117.7 x10_2/uL
same,APTT,"[…], time 14 day",24 s
same,Bas,"[…], time 14 day",0%
same,Eos,"[…], time 14 day",1%
same,Fbg,"[…], time 14 day",214.6 mg/dL
same,Hb,"[…], time 14 day",14.4 g/dL
same,Ht,"[…], time 14 day",42%
same,Lym,"[…], time 14 day",73%
same,MCH,"[…], time 14 day",20.3 pg
same,MCHC,"[…], time 14 day",34.1%
same,MCV,"[…], time 14 day",59.4 fL
same,Mono,"[…], time 14 day",3%
same,Neu,"[…], time 14 day",23%
same,PT,"[…], time 14 day",14.2 s
same,Plat,"[…], time 14 day",121.6 x10_4/uL
same,RBC,"[…], time 14 day",708.4 x10_4/ul
same,Ret,"[…], time 14 day",4.1%
same,WBC,"[…], time 14 day",143.7 x10_2/uL
same,APTT,"[…], time 28 day",23.9 s
same,Bas,"[…], time 28 day",0%
same,Eos,"[…], time 28 day",0.6%
same,Fbg,"[…], time 28 day",197 mg/dL
same,Hb,"[…], time 28 day",15 g/dL
same,Ht,"[…], time 28 day",43.1%
same,Lym,"[…], time 28 day",78.6%
same,MCH,"[…], time 28 day",19.7 pg
same,MCHC,"[…], time 28 day",34.9%
same,MCV,"[…], time 28 day",56.3 fL
same,Mono,"[…], time 28 day",2.4%
same,Neu,"[…], time 28 day",17.6%
same,PT,"[…], time 28 day",14.6 s
same,Plat,"[…], time 28 day",114.3 x10_4/uL
same,RBC,"[…], time 28 day",765.2 x10_4/ul
same,Ret,"[…], time 28 day",1.8%
same,WBC,"[…], time 28 day",115.9 x10_2/uL
same,KIDNEY_L,"[…], time 7 day",1.1 g
same,KIDNEY_R,"[…], time 7 day",1.1 g
same,KIDNEY_TOTAL,"[…], time 7 day",2.2 g
same,KIDNEY_L,"[…], time 14 day",1.2 g
same,KIDNEY_R,"[…], time 14 day",1.2 g
same,KIDNEY_TOTAL,"[…], time 14 day",2.3 g
same,KIDNEY_L,"[…], time 28 day",1.3 g
same,KIDNEY_R,"[…], time 28 day",1.3 g
same,KIDNEY_TOTAL,"[…], time 28 day",2.7 g
same,LIVER,"[…], time 7 day",10.5 g
same,LIVER,"[…], time 14 day",13.2 g
same,LIVER,"[…], time 28 day",14.1 g
same,A/G,"[…], time 7 day",1.8
same,ALP,"[…], time 7 day",1213.6 IU/L
same,ALT,"[…], time 7 day",37.4 IU/L
same,AST,"[…], time 7 day",68.6 IU/L
same,BUN,"[…], time 7 day",17.6 mg/dL
same,CRE,"[…], time 7 day",0.4 mg/dL
same,Ca,"[…], time 7 day",10.4 mg/dL
same,Cl,"[…], time 7 day",103.6 meq/L
same,DBIL,"[…], time 7 day",0.1 mg/dL
same,GLC,"[…], time 7 day",186.6 mg/dL
same,IP,"[…], time 7 day",7.3 mg/dL
same,K,"[…], time 7 day",3.8 meq/L
same,LDH,"[…], time 7 day",193.2 IU/L
same,Na,"[…], time 7 day",141.6 meq/L
same,PL,"[…], time 7 day",126.6 mg/dL
same,RALB,"[…], time 7 day",3.6 g/dL
same,TBIL,"[…], time 7 day",0.2 mg/dL
same,TC,"[…], time 7 day",46.4 mg/dL
same,TG,"[…], time 7 day",122.6 mg/dL
same,TP,"[…], time 7 day",5.5 g/dL
same,gamma-GTP,"[…], time 7 day",0.8 IU/L
same,A/G,"[…], time 14 day",1.8
same,ALP,"[…], time 14 day",894 IU/L
same,ALT,"[…], time 14 day",33 IU/L
same,AST,"[…], time 14 day",58 IU/L
same,BUN,"[…], time 14 day",16.6 mg/dL
same,CRE,"[…], time 14 day",0.4 mg/dL
same,Ca,"[…], time 14 day",10.4 mg/dL
same,Cl,"[…], time 14 day",102.4 meq/L
same,DBIL,"[…], time 14 day",0.098 mg/dL
same,GLC,"[…], time 14 day",201.8 mg/dL
same,IP,"[…], time 14 day",7.3 mg/dL
same,K,"[…], time 14 day",3.4 meq/L
same,LDH,"[…], time 14 day",187.8 IU/L
same,Na,"[…], time 14 day",141.4 meq/L
same,PL,"[…], time 14 day",141.8 mg/dL
same,RALB,"[…], time 14 day",3.8 g/dL
same,TBIL,"[…], time 14 day",0.2 mg/dL
same,TC,"[…], time 14 day",55.4 mg/dL
same,TG,"[…], time 14 day",128 mg/dL
same,TP,"[…], time 14 day",5.9 g/dL
same,gamma-GTP,"[…], time 14 day",0.8 IU/L
same,A/G,"[…], time 28 day",1.7
same,ALP,"[…], time 28 day",747.8 IU/L
same,ALT,"[…], time 28 day",30.2 IU/L
same,AST,"[…], time 28 day",55.8 IU/L
same,BUN,"[…], time 28 day",19.4 mg/dL
same,CRE,"[…], time 28 day",0.5 mg/dL
same,Ca,"[…], time 28 day",10.2 mg/dL
same,Cl,"[…], time 28 day",105.8 meq/L
same,DBIL,"[…], time 28 day",0.1 mg/dL
same,GLC,"[…], time 28 day",187.4 mg/dL
same,IP,"[…], time 28 day",6.7 mg/dL
same,K,"[…], time 28 day",3.7 meq/L
same,LDH,"[…], time 28 day",220.4 IU/L
same,Na,"[…], time 28 day",142.6 meq/L
same,PL,"[…], time 28 day",138.6 mg/dL
same,RALB,"[…], time 28 day",3.8 g/dL
same,TBIL,"[…], time 28 day",0.2 mg/dL
same,TC,"[…], time 28 day",57.4 mg/dL
same,TG,"[…], time 28 day",124 mg/dL
same,TP,"[…], time 28 day",6 g/dL
same,gamma-GTP,"[…], time 28 day",1 IU/L
